Columns and labels:
[1] = system: CD8+ T cells responsive to OVA; assay: SIINFEKL pentamer assay of OVA-specific CD8+ T cells (FACS); type: in vivo, mouse; details: IM, days 0 and 14, blood day 21
Experimental: To verify the results obtained using the in vivo cytotoxicity assay described in the Examples above, similar experiments were performed and CD8+ T cell activation was determined by measuring the percentage of OVA-specific CD8+ T cells using a pentamer assay. Briefly, mice were injected intramuscularly with the indicated amounts of OVA and test adjuvant compound at either 1 μg or 100 ng per mouse, respectively on day 0 as follows:
Experiment A: • Group 1: 100 μl of PBS; • Group 2: 50 μg of Ova into 100 μl PBS; • Group 3: 50 μg of Ova with 1 μg αGalCer; • Group 4: 50 μg of Ova with 1 μg PBS-11 • Group 5: 50 μg of Ova with 1 μg PBS-14 • Group 6: 50 μg of Ova with 1 μg PBS-57 • Group 7: 50 μg of Ova with 1 μg PBS-96
Experiment B: • Group 1: 100 μl of PBS; • Group 2: 50 μg of Ova into 100 μl PBS; • Group 3: 50 μg of Ova with 100 ng αGalCer; • Group 4: 50 μg of Ova with 100 ng PBS-11 • Group 5: 50 μg of Ova with 100 ng PBS-14 • Group 6: 50 μg of Ova with 100 ng PBS-57 • Group 7: 50 μg of Ova with 100 ng PBS-96 A second injection was administered to the mice on day 14 and blood was collected from the mice on day 21. The lymphocytes were collected and analyzed by FACS analysis using H-2 K^b SIINFEKL pentamer and CD8 antibody to detect CD8+ T cells responsive to OVA.

[2] = system: Ova-specific target cells; assay: in vivo cytotoxic specific cell lysis assay (CD8+ T cell response) in immunized mice; set-up: species or system mouse; details: for specific lysis of Ova-specific target cells in blood: Example 1, FIG. 1, 1 μg adjuvant with 50 μg Ova, day 11; for specific lysis of Ova-specific target cells in blood / average Ova-specific cell lysis / average Ova-specific cytotoxic response: IV; for average Ova-specific cell lysis: Example 4, FIG. 6, 400 μg Ova with or without 1 μg adjuvant (PBS-57 new formulation); for average Ova-specific cell lysis / average Ova-specific cytotoxic response / average OVA-specific cytotoxic response: day 11 blood; for percentage of specific lysis of the target cells by CD8+ T cells: Example 5 Experiment B, FIG. 8, 50 μg OVA with 10 ng adjuvant intramuscularly; for average Ova-specific cytotoxic response: Example 2, FIG. 2; for average Ova-specific cytotoxic response / average OVA-specific cytotoxic response: 400 μg Ova with or without 1 μg adjuvant; for average OVA-specific cytotoxic response: Example 2, FIG. 3, IM
OVA specific IgG2a = assay: OVA-specific IgG2a ELISA after intramuscular immunization; type: in vivo, mouse; details: FIG. 12; IM, 50 μg OVA with 100 ng adjuvant, 14 days post-injection
Experimental: (§1) Mice (6 per group) were injected intramuscularly with 50 μg of OVA either alone or in combination with 100 ng of the indicated adjuvants (Freund's adjuvant was used as a positive control) as follows: • Group 1: […] of Ova with CFA/IFA (Positive control) • Group 2: 50 μg of Ova • Group 3: 50 μg of Ova and 100 ng of αGalCer • Group 4: 50 μg of Ova and 100 ng of PBS-11 • Group 5: 50 μg of Ova and 100 ng of PBS-14 • Group 6: 50 μg of Ova and 100 ng of PBS-57 • Group 7: 50 μg of Ova and 100 ng of PBS-96 At 14 days post-injection, blood samples were collected and ELISAs for IgG1 and IgG2a were performed using mouse monoclonal antibodies specific for OVA isotype IgG1 or IgG2a. The results are shown as the titer of the antibody in peripheral blood in ng/ml. The results for IgG1 are depicted in FIG. 11 and those for IgG2a are depicted in FIG. 12.

OVA-specific IgG1 = OVA-specific IgG1 ELISA after intramuscular immunization; type: in vivo, mouse; details: FIG. 11; IM, 50 μg OVA with 100 ng adjuvant, 14 days post-injection
Experimental: as §1

IFNγ = assay: in vivo IFNγ release in sera by ELISA 24 hours after inoculation; set-up: species or system C57BL/6 mice; details: Quantikine kit, FIG. 4
Experimental: To test the ability of the adjuvant test compounds to stimulate in vivo cytokine release, C57BL/6 mice were administered the compounds at different concentrations intravenously and the production of IFNγ in sera was measured 24 hours later by ELISA. Groups of 3 mice were inoculated intravenously (tail vein) on day 0 as follows: • Group 1: 100 μl of PBS alone • Group 2: 1 μg of αGalCer in 100 μl of PBS • Group 3: 100 ng of αGalCer in 100 μl of PBS • Group 4: 1 ng of αGalCer in 100 μl of PBS • Group 5: 0.1 ng of αGalCer in 100 μl of PBS • Group 6: 100 ng of αGalCer and 100 μg of Ova in 100 μl of PBS • Group 7: 1 μg of PBS-57 in 100 μl of PBS • Group 8: 100 ng of PBS-57 in 100 μl of PBS • Group 9: 1 ng of PBS-57 in 100 μl of PBS • Group 10: 0.1 ng of PBS-57 in 100 μl of PBS • Group 11: 100 ng of PBS-57 and 400 μg of Ova into 100 μl of PBS • Group 12: 1 μg of PBS-14 in 100 μl of PBS • Group 13: 100 ng of PBS-14 in 100 μl of PBS • Group 14: 1 ng of PBS-14 in 100 μl of PBS • Group 15: 0.1 ng of PBS-14 in 100 μl of PBS • Group 16: 100 ng of PBS-14 and 400 μg of Ova in 100 μl of PBS • Group 17: 1 μg of PBS-96 in 100 μl of PBS • Group 18: 100 ng of PBS-96 in 100 μl of PBS • Group 19: 1 ng of PBS-96 in 100 μl of PBS • Group 20: 0.1 ng of PBS-96 in 100 μl of PBS • Group 21: 100 ng of PBS-96 and 400 μg of Ova in 100 μl of PBS. 24 hours after inoculation, blood samples were collected from the mice and IFNγ levels were detected by ELISA kit. Two ELISA kits were used, Quantikine mouse IFNγ (RD systems) was used to test all samples and ELISA mIFNγ (Diaclone) was used to test group 1, 2, 3, 6, 7, 8, 11, 12, 13, 16, 17, 18 and 21. All sera were diluted before use in ELISA as follows:
Results are expressed as IFNγ concentration (pg/ml) in sera and take into account the dilution factor. FIG. 4 depicts results using the Quantikine mouse IFNγ kit by RD systems. FIG. 4A depicts results of IFNγ levels for mice immunized with PBS-57, FIG. 4B depicts results of IFNγ levels for mice immunized with PBS-14, FIG. 4C depicts results of IFNγ levels for mice immunized with PBS-96 and FIG. 4D depicts results of IFNγ levels for mice immunized with αGalCer. At 0.1 ng, all adjuvant candidates induce cytokine release, but mice immunized with αGalCer produced three- or four-fold less IFNγ than mice immunized with PBS-57, PBS-14 or PBS-96 (1540.57±397.53 pg/ml, 4398.05±880.86 pg/ml, 6669.31±1231.82 pg/ml, 5823.33±720.69 pg/ml respectively).
Another set of mice were used to compare the ability of adjuvant compounds to stimulate in vivo cytokine release by the method described above. Five groups of C57BL/6 mice were administered 100 ng of PBS-57, PBS-14, PBS-96, or PBS-11 in 100 μl PBS or 100 μl PBS alone intravenously. The production of IFNγ in sera was measured 24 hours later by ELISA. FIG. 5 depicts results for mice immunized with 100 ng of PBS-11, PBS-96, PBS-14 and PBS-57.

[3] = Example 6 Experiment A, FIG. 9, 50 μg Ova with 1 μg adjuvant

## CCCCCCCCCCCCCCCCCCCCCCCCCC(=O)N[C@@H](CO[C@H]1O[C@H](CNC(=O)CCCC[C@@H]2SC[C@@H]3NC(=O)N[C@@H]32)[C@H](O)[C@H](O)[C@H]1O)[C@H](O)[C@H](O)CCCCCCCCCCCCCC [PBS-11, reference compound]
[1]; [3]
  percentage of OVA specific CD8+ T cells: not as effective
[2]
  specific lysis of Ova-specific target cells in blood: did not result in specific lysis of cells
  average Ova-specific cell lysis: 32.3±2.5%
  percentage of specific lysis of the target cells by CD8+ T cells: indistinguishable from the controls

## CCCCCCCCCCCCCCCCCCCCCCCCCC(=O)N[C@@H](CO[C@H]1O[C@H](CNC(C)=O)[C@H](O)[C@H](O)[C@H]1O)[C@H](O)[C@H](O)CCCCCCCCCCCCCC [PBS-14]
OVA specific IgG2a
  OVA specific IgG2a titer in peripheral blood: about as well as Freund's adjuvant
OVA-specific IgG1
  OVA-specific IgG1 titer in peripheral blood: able to elicit a robust IgG1 titer
[1]; [3]
  percentage of OVA specific CD8+ T cells: enhanced the percentage of OVA specific CD8+ T cells
[1]; Example 6 Experiment B, FIG. 10, 50 μg Ova with 100 ng adjuvant
  percentage of OVA specific CD8+ T cells: surprisingly much better at enhancing the CD8+ T cell response
IFNγ; 0.1 ng IV
  IFNγ concentration in sera: 6669.31 ± 1231.82 pg/mL
IFNγ; 1 ng IV
  IFNγ concentration in sera: 7481.15 ± 3454.03 pg/mL
IFNγ; 100 ng IV
  IFNγ concentration in sera: 19582.18 ± 3421.20 pg/mL
IFNγ; 1 μg IV
  IFNγ concentration in sera: 16392.53 ± 5957.70 pg/mL
[2]
  specific lysis of Ova-specific target cells in blood: resulted in cytotoxic lysis of Ova-specific target cells
  average Ova-specific cytotoxic response: 83.3±6.1%
  average OVA-specific cytotoxic response: 52.07±29.56%
  average Ova-specific cell lysis: 83.3±6.1%
[2]; Example 5 Experiments A and B, FIGS. 7 and 8, 50 μg OVA with 100 ng or 10 ng adjuvant intramuscularly
  enhancement of the CD8+ T cell response (specific lysis) at low doses: unexpectedly better than other adjuvants

## CCCCCCCC/C=C\CCCCCCCCCCCCCC(=O)N[C@@H](CO[C@H]1O[C@H](CNC(C)=O)[C@H](O)[C@H](O)[C@H]1O)[C@H](O)[C@H](O)CCCCCCCCCCCCCC [PBS-57, reference compound]
OVA-specific IgG1
  OVA-specific IgG1 titer in peripheral blood: able to elicit a robust IgG1 titer
[1]; [3]
  percentage of OVA specific CD8+ T cells: enhanced the percentage of OVA specific CD8+ T cells
IFNγ; 0.1 ng IV
  IFNγ concentration in sera: 4398.05 ± 880.86 pg/mL
IFNγ; 1 ng IV
  IFNγ concentration in sera: 11425.98 ± 833.04 pg/mL
IFNγ; 100 ng IV
  IFNγ concentration in sera: 21432.76 ± 4312.76 pg/mL
IFNγ; 1 μg IV
  IFNγ concentration in sera: 3353.45 ± 867.57 pg/mL
[2]
  average Ova-specific cytotoxic response: 88.1±6.2%
  average OVA-specific cytotoxic response: 56.11±13.34%
  average Ova-specific cell lysis: 88.1±6.2%
  percentage of specific lysis of the target cells by CD8+ T cells: indistinguishable from the controls

## CCCCCCCCCCCCCCCCCCCCCCCCCC(=O)N[C@@H](CO[C@H]1O[C@H](CO)[C@H](O)[C@H](O)[C@H]1O)[C@H](O)[C@H](O)CCCCCCCCCCCCCC [αGalCer, α-galactosyceramide, reference compound]
[1]; [3]
  percentage of OVA specific CD8+ T cells: not as effective
IFNγ; 0.1 ng IV
  IFNγ concentration in sera: 1540.57 ± 397.53 pg/mL
IFNγ; 1 ng IV
  IFNγ concentration in sera: 3802.99 ± 586.02 pg/mL
IFNγ; 100 ng IV
  IFNγ concentration in sera: 7714.37 ± 3529.07 pg/mL
[2]
  average Ova-specific cytotoxic response: 79.9±0.8%
  average OVA-specific cytotoxic response: −5.85±11.01%
  percentage of specific lysis of the target cells by CD8+ T cells: indistinguishable from the controls

B1: ovalbumin (protein, UniProt P01012 2-386, looked up)
Ovalbumin: GSIGAASMEFCFDVFKELKVHHANENIFYCPIAIMSALAMVYLGAKDSTRTQINKVVRFDKLPGFGDSIEAQCGTSVNVHSSLRDILNQITKPNDVYSFSLASRLYAEERYPILPEYLQCVKELYRGGLEPINFQTAADQARELINSWVESQTNGIIRNVLQPSSVDSQTAMVLVNAIVFKGLWEKAFKDEDTQAMPFRVTEQESKPVQMMYQIGLFRVASMASEKMKILELPFASGTMSMLVLLPDEVSGLEQLESIINFEKLTEWTSSNVMEERKIKVYLPRMKMEEKYNLTSVLMAMGITDVFSSSANLSGISSAESLKISQAVHAAHAEINEAGREVVGSAEAGVDAASVSEEFRADHPFLFCIKHIATNAVLFFGRCVSP
notes: nominal antigen, Ovalbumin grade VII, Sigma
[2]
  average Ova-specific cytotoxic response: 11.8±14.4%
  average OVA-specific cytotoxic response: 1.60±14.33%
  average Ova-specific cell lysis: 11.8±14.4%

Reference: US8207135B2, “Compositions for and methods of enhancing the immune response to antigens” (Wittycell, priority 2007, dated 2012)
